Read-outs that look alike come from different tables or passages of the source.
Assays:
[1] = tested on: Panc-1 cells; experiment: Uptake study in Panc-1 cells; type: cell-based; conditions: 0.1 mM, 1 h
Experimental: Caco-2, Panc-1, and AsPC-1 cells were grown on a 6-well plate for 18, 6, and 6 days, respectively. Wells were rinsed with MES (pH 6.0) buffer twice. Fresh MES buffer was reapplied to each well and incubated at 37 °C for 15 min. Each drug was individually tested from freshly prepared solutions in MES buffer (0.1 mM, total 0.3 mL) with the presence and the absence of 10 mM glycyl-proline (Gly-Pro). The solution was placed in each well and incubated at 37 °C for 60 min. Drug solution was removed and 3 mL of ice-cold PBS was immediately placed in each well. Each well was rinsed with 3 mL of cold-PBS twice and 0.5 mL of methanol/H2O (1:1) containing 0.1% TFA was placed in each well. The cell suspension was collected and transferred to a new tube. Those tubes were spun at 1,000 × g at 4 °C for 5 min. The supernatant was mixed with equal amount of water with either 0.1% formic acid or 0.1% ammonium hydroxide for LC-MS analysis. The cell pullets were used to determine protein amount with the Bio-Rad DC Protein Assay using bovine serum albumin as a standard.
The LC-MS analytical method of 5′-mono amino acid ester prodrugs of floxuridine has been reported previously. The LC-MS analysis of dipeptide monoester prodrugs of floxuridine and gemcitabine along with their parent drugs was modified and performed in a similar manner. Briefly, LC-MS analysis of the uptake drug amount was performed in triplicate on LCMS-2010EV (Shimadzu Scientific Instruments, Kyoto, Japan) equipped with an ESI (electrospray ionization) source. The Shimadzu LC-MS system consisting of Shimadzu LC-20AD pumps with DGU-20A in-line vacuum degasser units, and SIL-20A HT autosampler with an InertSustain C-18, 2.1 × 50 mm, 3 µm particle size, (GL Sciences, Torrance, CA, USA) was used for the separation and the effluent from the column was introduced directly to the ionization source. The system was controlled by Shimadzu LCMS solution software (version 3) to collect and process data. All samples were run with Solvent A and Solvent B with Solvent B gradient changing from 0%–90% at a rate of 13.8%/min over a 22 min run. The mobile phase consisted of 0.1% TFA/water (Solvent A) and 0.1% TFA/acetonitrile (Solvent B) for gemcitabine, gemcitabine prodrug and floxuridine prodrug. The mobile phase consisted of 0.1% ammonium hydroxide/water (Solvent A) and 0.1% ammonium hydroxide /acetonitrile (Solvent B) for floxuridine. The ESI probe was operated with a detector voltage of 1.5 kV, CDL temperature of 250 °C, heat block of 200 °C, and nebulizing gas flow of […] in positive mode for gemcitabine prodrugs and their metabolites. The drying gas was N2 delivered at 0.1 MPa.

[2] = tested on: mouse jejunum; experiment: In situ single-pass intestinal perfusion in mice (Peff); type: in vivo; conditions: for Peff, mouse perfusion: 100 µM; for fold higher membrane permeability than parent drug: in situ
Experimental: The perfusion buffer (pH6.0) consisted of 145 mM NaCl, 0.5 mM MgCl2, 1 NaH2PO4, 1 mM CaCl2, 3 mM KCl, 5 mM glucose, and 5 mM MES. The pH of the buffer was adjusted to pH6.0. This perfusion buffer also contained phenol-red (14 µM) as a non-absorbable marker for water flux measurements.
All animal experiments were conducted using protocols approved by the University of Michigan Committee of Use and Care of Animals (UCUCA). Female BALB/c mice (Charles River, IN, USA) weighing 20–25 g were used for all perfusion studies. Prior to each experiment, mice were fasted overnight with free access to water.
The procedure for the in situ single-pass intestinal perfusion is previously reported. Briefly, mice were anesthetized with an i.m. injection of ketamine-xylazine mixture (ketamine: 80–120 mg/kg, xylazine: 5–10 mg/kg) and placed on a heated pad maintained at 37 °C. The abdomen was opened by a midline incision and a jejunal segment (approximately 10 cm) was carefully exposed to cannulate both ends with flexible PVC tubing (2.06 mm i.d., Fisher Scientific Inc., Pittsburgh, PA, USA). All solutions were incubated in a 37 °C water-bath. The isolated segment was rinsed with blank perfusion buffer to clean out any residual debris.
At the start of the study, the test compound (100 µM) in perfusion buffer (pH 6.0) including phenol red was perfused through the intestinal segment (Watson-Marlow Pump 323S, Watson-Marlow Bredel Inc., Wilimington, MA, USA), at the flow rate of 0.1 mL/min. The perfusion buffer was perfused for 30 min to assure steady-state and samples were taken in every 10 min for 90 min. At the end of perfusion, blood samples were collected by cardiac puncture. Blood samples with heparin were centrifuged at 1,000 × g for 10 min at 4 °C to collect plasma samples for LC-MS analysis. Following the termination of the experiment, the length of each perfused intestinal segment was measured.
The net water flux in the mouse perfusion studies was determined using phenol red (14 µM), a non-absorbed and non-metabolized marker. The measured Cout/Cin ratio of test compound was corrected for water flux according to the following equation: [drawing 1] where Cin phenol red and Cout phenol red are equal to the concentration of phenol red in the inlet and the outlet samples, respectively. The effective permeability (Peff; cm/s) through the mouse intestinal wall in the single-pass intestinal perfusion studies was determined according to the following equation: [drawing 2] where Q is the perfusion buffer flow rate (0.1 mL/min), C′out/C′in is the ratio of the outlet/inlet concentration of test compound that is adjusted for water transport, R is the radius of the intestinal segment (set to 0.1 cm), and L is the length of the perfused intestinal segment.
The stability samples of prodrugs and their metabolites, and perfusion samples were determined on an Agilent HPLC system (Agilent Technologies, Santa Clara, CA, USA). The HPLC system consisted of Agilent pumps (1100 series), an Agilent autosampler (1200 series), and an Agilent UV-Vis detector (1100 series) controlled by Chemstation® 32 software (version B.01.03). Samples were resolved in an Agilent Eclipse Plus C18 reverse-phase column (3.5 µm, 4.6 × 75 mm) equipped with a guard column. The mobile phase consisted of 0.1% TFA/water (Solvent A) and 0.1% TFA/acetonitrile (Solvent B) with the solvent B gradient changing from 0%–56% at a rate of […] during a 15 min run for gemcitabine and gemcitabine prodrugs. Standard curves generated for each prodrug and their parent drug were utilized for quantitation of integrated area under peaks. The detection wavelength was 254 nm and spectra were acquired in the 220–380 nm wavelength range. The detection wavelength for phenol red was 430 nm.

[3] = Chemical stability in 0.01 N HCl, SIF (pH 6.0) and pH 7.4 phosphate buffer; type: physicochemical
Experimental: The nonenzymatic hydrolysis of the prodrugs was determined as described above, except that each well contained pH 7.4 phosphate buffers (10 mmol/L) instead of cell homogenate.
The experiments concerning drug and their prodrug stability were performed at 37 °C in 0.01 N HCl, SIF (pH 6.0), and pH 7.4 phosphate buffer. […] Prodrug metabolites such as floxuridine, 5-fluorouracil (5-FU), gemcitabine, 2′-deoxy-2′,2′-difluorouridine, uracil, and cytosine were monitored along with prodrug disappearance in this experiment.

[4] = 0.01 N HCl, 37 °C, read-out: 0.01 N HCl t1/2
[5] = SIF pH 6.0, 37 °C, read-out: SIF pH 6.0 t1/2
[6] = pH 7.4 phosphate buffer, 37 °C, read-out: Buffer pH 7.4 t1/2

| Compound | Parent drug, share of uptake [1] [%] | Peff, mouse perfusion ([2]; perfusion buffer pH 6.0) | Peff, mouse perfusion ([2]; perfusion buffer pH 6.0, listed as gemcitabine) [cm/s] | 0.01 N HCl t1/2 ([3]; 0.01 N HCl, 37 °C) [h] | SIF pH 6.0 t1/2 ([3]; SIF pH 6.0, 37 °C) [min] | Buffer pH 7.4 t1/2 ([3]; pH 7.4 phosphate buffer, 37 °C) [min] | Prodrug, share of uptake [1] [%] | fold higher membrane permeability than parent drug [2] [fold] | half-life [3, 4] [h] | half-life [3, 5] [h] | half-life [3, 6] [h] | uptake amount [1] | Peff, mouse perfusion ([2]; perfusion buffer pH 6.0, listed as floxuridine) [cm/s] |
| --- | --- | --- | --- | --- | --- | --- | --- | --- | --- | --- | --- | --- | --- |
| 2′,2′-difluoro-2′-deoxyuridine [Gemcitabine] | 20 | 0.2 ± 0.2 ×10^−5 cm/s | 2e-06 | >2 | >120 | >120 | – | – | – | – | – | – | – |
| NC(Cc1ccccc1)C(=O)NC(Cc1ccc(O)cc1)C(=O)OCC1OC(n2cc(F)c(=O)[nH]c2=O)CC1O [5′-L-Phenylalanyl-L-tyrosyl-floxuridine] | – | 1.9 ± 0.1 ×10^−5 cm/s | – | – | – | – | 98 | 19.0 | > 2 | > 2 | > 2 | – | – |
| Nc1ccn(C2OC(COC(=O)C(Cc3ccc(O)cc3)NC(=O)C(N)Cc3ccccc3)C(O)C2(F)F)c(=O)n1 [5′-L-Phenylalanyl-L-tyrosyl-gemcitabine] | – | 2.2 ± 0.4 ×10^−5 cm/s | – | – | – | – | 9 | 11.0 | > 2 | > 2 | 0.56 ± 0.0233 | – | – |
| O=c1[nH]c(=O)n([C@H]2C[C@H](O)[C@@H](CO)O2)cc1F [Floxuridine, 5-fluoro-2′-deoxyuridine] | – | 0.1 ± 0.8 ×10^−5 cm/s | – | – | – | – | – | – | > 2 | > 2 | > 2 | not observed | 1e-06 |

From PMC3942691, “The Dipeptide Monoester Prodrugs of Floxuridine and Gemcitabine—Feasibility of Orally Administrable Nucleoside Analogs” (Pharmaceuticals, 2014)
